Measurements published in patent publication US10723764B2, “Anti-microbial peptides and methods of use thereof” (priority 2011, dated 2020).
Where two headings read alike, the source gives them in different places. Marks after values point to notes of the source that are not given here. Where a SMILES comes first, the peptide text is derived from it. Where no end group is shown, it is not given here. [ ]: non-standard residue; d: D form.

Key:
[1] = system: methicillin-resistant Staphylococcus aureus USA300 LAC; settings: S. aureus USA300; Table 5 screen
Method: The bacterial strains used in the study are Bacillus subtilis 168, methicillin-resistant Staphylococcus aureus USA300 LAC (Gram-positive), Escherichia coli K12, and Pseudomonas aeruginosa PAO1 (Gram negative). The antibacterial activities of the peptides were determined using the standard broth microdilution method (Wang et al. (2005) J. Biol. Chem., 280:5803-5811). In brief, the bacterial culture (90 μL) was treated with a series of peptide solutions (10 μL), each with two-fold dilution. After overnight incubation at 37° C., the microplate was read on a ChroMate® 4300 Microplate Reader at 630 nm (GMI, Ramsey, Minn.).
(§1) For the initial screen, antimicrobial activities of these peptides against S. aureus and E. coli were evaluated using the standard broth microdilution protocol (Wang, G. (2008) J. Biol. Chem., 283:32637-43).
The antibacterial activities of the peptides were determined using the standard broth microdilution method (Mishra et al. (2012) J. Am. Chem. Soc., 134:12426-12429; Wang et al. (2005) Biol. Chem., 280:5803-5811). Briefly, the bacterial culture was treated with a series of peptide solutions, each with two-fold dilution. After overnight incubation at 37° C., the microplate was read on a ChroMate® 4300 Microplate Reader at 630 nm (GMI, Ramsey, Minn.).

Escherichia coli K12 = settings: E. coli K12; Table 5 screen
Method: The antibacterial activities of the peptides were determined using the standard broth microdilution method (Wang et al. (2005) J. Biol. Chem., 280:5803-5811). In brief, the bacterial culture (90 μL) was treated with a series of peptide solutions (10 μL), each with two-fold dilution. After overnight incubation at 37° C., the microplate was read on a ChroMate® 4300 Microplate Reader at 630 nm (GMI, Ramsey, Minn.).
as §1

Gram-positive bacteria = system: Gram-positive bacteria; design: key: Y, Yes; N, No; settings: data from the APD; cited from earlier work
Gram-negative bacteria = system: Gram-negative bacteria; design: key: Y, Yes; N, No; settings: data from the APD; cited from earlier work
chymotrypsin = chymotrypsin (Bos taurus, UniProt P00766)
Method: One of the hurdles in developing peptide-based antimicrobials is peptide stability to protease (Wang, G. (2010) Antimicrobial Peptides: Discovery, Design and Novel Therapeutic Strategies, CABI, England). […] This was done by modifying the standard microdilution antimicrobial assays (Wang, G. (2008) J. Biol. Chem., 283:32637-32643). Specifically, the bacterial wells with a high peptide concentration (e.g. 100 μM) are duplicated (e.g., two for antimicrobial assays and two for protease stability assays). As an illustration, chymotrypsin was applied to the duplicated wells at a peptide:protease molar ratio of 25:1. Numerous peptides were screened in this manner.
To identify protease-resistant peptide templates, 30 synthetic peptides were screened (Table 9; Wang et al. (2008) Antimicrob. Agents Chemother., 52:3438-3440). A standard microdilution assay protocol (Li et al. (2006) J. Am. Chem. Soc., 128:5776-5785) was modified to include proteases into the duplicated wells with high concentrations of peptide so that both antimicrobial activity and protease stability could be evaluated simultaneously. […] (peptide:protease molar ratio of 40:1).

human erythrocytes = settings: human red blood cells; Table 6
Method: Peptide hemolysis was assayed using an established protocol (Malmsten et al. (2011) PLoS One 6:e16400). In brief, fresh blood, obtained from the UNMC Blood Bank, was washed three times with PBS buffer and made into a 5% solution. To 90 μL of this solution, 10 μL of a peptide solution was added and incubated at 37° C. for one hour. After centrifugation at 13,000 rpm, aliquots of the supernatant were transferred to a fresh 96 well microplate. The absorbance of the solutions was measured at 545 nm to detect the amount of hemoglobin released. The percent lysis was calculated by assuming 100% release when treated with 2% Triton X-100 and no lysis (0%) when treated with PBS buffer. HL50 was the peptide concentration that caused 50% lysis of human erythrocytes. The cell selectivity (CS) indexes were calculated as the ratio of HL50 to the MIC of the peptide against S. aureus USA300.
The hemolytic effects of the six peptides were also compared on human red blood cells (hRBC) using an established protocol (Malmsten et al. (2011) PLoS One 6:e16400). […] A high TI indicates good cell selectivity.
Peptide hemolysis was assayed using an established protocol (Menousek et al. (2012) Int. J. Antimicrob. Agents 39:402-406; Malmsten et al. (2011) PLoS One 6:e16400). Briefly, blood cells were washed three times with phosphate-buffered saline (PBS) and were diluted to a 5% solution. Following peptide treatment, incubation at 37° C. for 1 hour and centrifugation at 13,000 rpm, aliquots of the supernatant were transferred to a fresh 96-well microplate. To assess peptide cytotoxicity, the amount of hemoglobin released was measured at 545 nm. Percent lysis was calculated by assuming 100% release when human blood cells were treated with 2% Triton X-100 and 0% release when they were incubated with PBS buffer.

[2] = antimicrobial assay with chymotrypsin, peptide:protease molar ratio 40:1, E. coli K12 for peptides inactive against S. aureus
[3] = E. coli K12 growth with chymotrypsin, peptide:protease molar ratio 25:1

GNNRPVYIPQPRPPHPRI [Apidaecin IA, reference compound]
MICs (μM) SA [1]: >100 µM
MICs (μM) EC (Escherichia coli K12): >100 µM

Temporin L: temporin, APD ID 99, SEQ ID NO: 11 (FVQWFSKFLGRIL; listed as Rana temporaria)
Activity G+ (activity against Gram-positive bacteria) (Gram-positive bacteria): Y/Y
Activity G− (activity against Gram-negative bacteria) (Gram-negative bacteria): Y/Y

FKRIVQRIKDFLRNLVPRTE [FK-21]
Stability (to chymotrypsin) (chymotrypsin; [2]): −

Temporin B: temporin, APD ID 95, SEQ ID NO: 19 (LLPIVGNLLKSLL; listed as Rana temporaria)
Activity G+ (activity against Gram-positive bacteria) (Gram-positive bacteria): Y
Activity G− (activity against Gram-negative bacteria) (Gram-negative bacteria): N

IWLTALKFLGKHAAKHLAKQQLSKL [Lycotoxin I, reference compound]
HL50 (μM), concentration at which 50% red blood cells are lysed (human erythrocytes): 125 µM

IKWKKLLRAAKRIL-NH2 [DASamP2]
HL50 (μM), concentration at which 50% red blood cells are lysed (human erythrocytes): 75 µM

FFHHIFRGIVHVGKTIHRLVTG [Piscidin 1, reference compound]
HL50 (μM), concentration at which 50% red blood cells are lysed (human erythrocytes): 20 µM

Temporin G: temporin, APD ID 101, SEQ ID NO: 12 (FFPVIGRILNGIL; listed as Rana temporaria)
Activity G+ (activity against Gram-positive bacteria) (Gram-positive bacteria): Y/Y
Activity G− (activity against Gram-negative bacteria) (Gram-negative bacteria): Y/Y

Temporin C: temporin, APD ID 96, SEQ ID NO: 21 (LLPILGNLLNGLL; listed as Rana temporaria)
Activity G+ (activity against Gram-positive bacteria) (Gram-positive bacteria): Y
Activity G− (activity against Gram-negative bacteria) (Gram-negative bacteria): N

RPKHPIKHQGLPQEVLNENLLRF [Isracidin, reference compound]
MICs (μM) SA [1]: >100 µM
MICs (μM) EC (Escherichia coli K12): >100 µM

HVDKKVADKVLLLKQLRIMRLLTRL [Spinigerin, reference compound]
MICs (μM) SA [1]: >81 µM
MICs (μM) EC (Escherichia coli K12): >81 µM

CC[C@@H](C)[C@@H](NC(=O)[C@H](CCCNC(=N)N)NC(=O)[C@H](CCC(N)=O)NC(=O)[C@@H](NC(=O)[C@H](NC(=O)[C@H](CCCNC(=N)N)NC(=O)[C@H](CCCCN)NC(=O)[C@H](Cc1ccccc1)NC(=O)CN)[C@H](C)CC)C(C)C)C(=O)N[C@@H](CCCCN)C(=O)N[C@@H](CC(=O)O)C(=O)N[C@@H](Cc1ccccc1)C(=O)N[C@H](CC(C)C)C(=O)N[C@@H](CCCNC(=N)N)C(=O)N[C@@H](CC(N)=O)C(=O)N[C@@H](CC(C)C)C(=O)N[C@H](C(N)=O)C(C)C [GF-17d3] (H-GFKR[dI]VQR[dI]KDF[dL]RNLV-NH2; N-terminus assumed)
Stability (to chymotrypsin) (chymotrypsin; [3]): +
Stability (to chymotrypsin) (chymotrypsin; [2]): +^c

Temporin A: temporin, APD ID 94, SEQ ID NO: 14 (FLPLIGRVLSGIL; listed as Rana temporaria)
Activity G+ (activity against Gram-positive bacteria) (Gram-positive bacteria): Y
Activity G− (activity against Gram-negative bacteria) (Gram-negative bacteria): N

GFKRIVQRIKDFLRNL-NH2 [GF-16]
Stability (to chymotrypsin) (chymotrypsin; [2]): −

GKEFKRIVQRIKDFLRNLVPR [GK-21]
Stability (to chymotrypsin) (chymotrypsin; [3]): −
Stability (to chymotrypsin) (chymotrypsin; [2]): −

RQRVEELSKFSKKGAAARRRK [Misgurin, reference compound]
MICs (μM) SA [1]: >84 µM
MICs (μM) EC (Escherichia coli K12): >84 µM

GFKRIVQRIKDFLRNLV-NH2 [GF-17]
Stability (to chymotrypsin) (chymotrypsin; [3]): −
Stability (to chymotrypsin) (chymotrypsin; [2]): −

Temporin-SHf: temporin, APD ID 1534, SEQ ID NO: 10 (FFFLSRIF; listed as Pelophylax saharicus)
Activity G+ (activity against Gram-positive bacteria) (Gram-positive bacteria): Y/Y
Activity G− (activity against Gram-negative bacteria) (Gram-negative bacteria): Y/Y

GLLGLLGSVVSHVVPAIVGHF-NH2 [Maculatin 1.3, reference compound]
HL50 (μM), concentration at which 50% red blood cells are lysed (human erythrocytes): 25 µM

GFLSILKKVLPKVMAHMK-NH2 [Melectin, reference compound]
MICs (μM) SA [1]: 12.5 to 25 µM
MICs (μM) EC (Escherichia coli K12): 12.5 to 25 µM

FFGKVLKLIRKIF-NH2 [DASamP1]
HL50 (μM), concentration at which 50% red blood cells are lysed (human erythrocytes): 25 µM

GKPRPYSPRPTSHPRPIRV [Drosocin, reference compound]
MICs (μM) SA [1]: >100 µM
MICs (μM) EC (Escherichia coli K12): >100 µM

Temporin H: temporin, APD ID 859, SEQ ID NO: 17 (LSPNLLKSLL; listed as Rana temporaria)
Activity G+ (activity against Gram-positive bacteria) (Gram-positive bacteria): Y
Activity G− (activity against Gram-negative bacteria) (Gram-negative bacteria): N

Temporin E: temporin, APD ID 97, SEQ ID NO: 16 (VLPIIGNLLNSLL; listed as Rana temporaria)
Activity G+ (activity against Gram-positive bacteria) (Gram-positive bacteria): Y
Activity G− (activity against Gram-negative bacteria) (Gram-negative bacteria): N

Temporin F: temporin, APD ID 98, SEQ ID NO: 15 (FLPLIGKVLSGIL; listed as Rana temporaria)
Activity G+ (activity against Gram-positive bacteria) (Gram-positive bacteria): Y/Y
Activity G− (activity against Gram-negative bacteria) (Gram-negative bacteria): Y/Y

Temporin-1Lb: temporin, APD ID 110, SEQ ID NO: 13 (NFLGTLINLAKKIM; listed as Rana luteiventris)
Activity G+ (activity against Gram-positive bacteria) (Gram-positive bacteria): Y
Activity G− (activity against Gram-negative bacteria) (Gram-negative bacteria): N

GFKDLLKGAAKALVKTVLF-NH2 [Ascaphin-8, reference compound]
HL50 (μM), concentration at which 50% red blood cells are lysed (human erythrocytes): 45 µM

GRFKRFRKKFKKLFKKLS-NH2 [BMAP-18]
Stability (to chymotrypsin) (chymotrypsin; [2]): −

KIGKEFKRIVQRIKDFLRNLVP [KI-22]
Stability (to chymotrypsin) (chymotrypsin; [3]): −
Stability (to chymotrypsin) (chymotrypsin; [2]): −

Temporin K: temporin, APD ID 100, SEQ ID NO: 20 (LLPNLLKSLL; listed as Rana temporaria)
Activity G+ (activity against Gram-positive bacteria) (Gram-positive bacteria): Y
Activity G− (activity against Gram-negative bacteria) (Gram-negative bacteria): N

EKIGKEFKRIVQRIKDFLRN [EK-20]
Stability (to chymotrypsin) (chymotrypsin; [2]): −
